Reference: the METLIN SMRT retention time set (Domingo-Almenara et al. 2019)

Experiment: gradient 5% acetonitrile 3 min, to 50% in 2 min, to 85% in 15 min, held 3 min, 100 µL/min
Settings: column: Zorbax Extend-C18 2.1 x 50 mm; eluents: water / acetonitrile, 0.1% formic acid
Procedure, shortened: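 Each retention time is based on an adduct peak selected computationally and verified by manual inspection. Measurements used HPLC–quadrupole time-of-flight mass spectrometry in positive and negative ionization mode on mixtures of ~100 pure standards. Chromatography ran on a Zorbax Extend-C18 column (2.1 × 50 mm, 1.8 μm) at 100 μL/min with water and acetonitrile, each containing 0.1% formic acid, and dead and dwell volumes of 40 μL and 900 μL.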

SMILES | RP-LC retention time [s]
CC1CCN(C(=O)c2cn(-c3ccc(-c4nc(C(C)(C)C)no4)cn3)cn2)CC1 | 1130
Cc1nc2c(ccc3nc(NC(=O)c4cc(=O)c5ccccc5o4)sc32)s1 | 828
Cc1noc(C)c1Cc1ccc(C(=O)NCCc2noc(C3CC3)n2)o1 | 745
O=S(=O)(c1ccc2c(c1)CCC2)N1CCCC1c1nc(-c2ccc(Cl)cc2)no1 (stereo not given) | 1310
Cc1ccc(Nc2c(-c3ccc(N(C)C)cc3)nc3cc(C)ccn23)cc1 | 828
O=C(c1ccc2ccccc2n1)N1CC2CN(S(=O)(=O)c3ccccc3)CC(C1)O2 | 769
Cc1cc(=O)n(CC(=O)Nc2ccc(C)c(C)c2)c(N2CCCCC2)n1 | 717
COCC1(O)CCOC2(CCN(Cc3cc(C)ccc3C)CC2)C1 (stereo not given) | 559
O=S1(=O)C[C@H](N2CCN(c3ncccn3)CC2)[C@@H](S(=O)(=O)c2cccs2)C1 | 719
CCCn1ccc2oc(C)c(C(=O)NC(C)c3ccc(OCC)cc3)c2c1=O (stereo not given) | 1070
CC1CCCN(CC2CCN(C(=O)Nc3ccc(F)cc3)CC2)C1 (stereo not given) | 608
Cc1cccc2c(=O)n(C3CCN(S(=O)(=O)c4cc(F)cc(F)c4)CC3)cnc12 | 1000
CC[C@@H](CO)Nc1nc(NCc2ccc(-c3ccccn3)cc2)c2ncn(C(C)C)c2n1 | 632
O=C(c1ccc(OCC2CCCN2C(=O)C2CCC2)cc1)N1CCCC1 (stereo not given) | 783
CN1C(=O)CCSc2ccccc21 | 711
CCC1Oc2ccc(S(=O)(=O)N3CCC(C(=O)Nc4ccc(C)cc4Cl)CC3)cc2NC1=O (stereo not given) | 971
COc1ccc(C2C(C(=O)O)c3ccccc3C(=O)N2C)cc1OC (stereo not given) | 657
N#Cc1cccc(NC(=O)C(=O)c2ccc[nH]2)c1 | 788
COc1ccc(OC)c(NC(=O)C2CCCN(c3nnc4ccccn34)C2)c1 (stereo not given) | 667
Cc1c(C(=O)N2CCSCC2)cnn1-c1cc(-c2nc(C3CC3)no2)ccn1 | 949
Cn1nnc2cc(C(=O)NCc3ccc4c(c3)OCO4)ccc21 | 686
Cc1cccc(NC(=O)C2CCN(S(=O)(=O)c3cc(C(=O)N4CCC(C)CC4)n(C)c3)CC2)n1 | 722
Cc1ccc(CNC(=O)c2nnc(-c3oc4c(C)cccc4c3C)o2)o1 | 1140
NC(=O)C1CCN(C(=O)CN2CCN(c3cccc(Cl)c3)CC2)CC1 | 600
CCCCOc1ccc(C(=O)Nc2ccc(F)cc2F)cc1 | 1130
CSc1ccc(-c2nc3ccc(Br)cn3c2NC2CCCCC2)cc1 | 955
COc1ccc(NC(=O)c2csc(-c3cn(C)c4ncccc34)n2)cc1 | 923

SMILES | RP-LC retention time [s]
Cc1cc(S(=O)(=O)N2CCC(n3cnnc3C(C)C)CC2)ccc1F | 751
CCC(C)(C)NC(=O)C1CCCN1S(=O)(=O)c1cc2c(cc1C)NC(=O)CO2 (stereo not given) | 745
Cc1cc(C)cc(NC(=O)Cc2nnc(-c3ccc4ncccc4c3)o2)c1 | 786
CN(C)CCNC(=O)Cc1cccn1-c1ccc(F)cc1 | 598
CC(NC(=O)Cc1cn(C)c2ncccc12)c1ccc(F)cc1 (stereo not given) | 695
COCCCNC(=O)N1CC(c2nc(C)no2)C2(CCOCC2)C1 (stereo not given) | 598
CC(C)c1ccc(S(=O)(=O)N2C[C@@H](F)C[C@H]2C(=O)N2CCCCC2)cc1 | 930
O=C(C1CCOC1)N1CCCn2nc(-c3cccs3)cc2C1 (stereo not given) | 678
CCCn1cc(CCNS(=O)(=O)c2ccc(CC)cc2)c2cccnc21 | 935
c1ccc(-c2nnc(-c3ccccn3)s2)nc1 | 850
COc1ccc(S(=O)(=O)N2CCN(c3cnn4c(C)nnc4c3)CC2)cc1 | 670
CCOc1ccc(-c2nc(-c3ccc4c(c3)N(CC)C(=O)CO4)no2)cc1 | 1240
Fc1ccc(CN2CCC(F)(c3nc(-c4cnccn4)no3)CC2)c(Cl)c1 | 712
O=C(NCCn1c(=O)n(Cc2ccc(F)cc2)c2cccnc21)C1CC1 | 711
Cc1ccnc(C(=O)Nc2ccc(Nc3cc(N4CCOCC4)nc(C)n3)cc2)n1 | 566
Cc1cc(NC(=O)CSc2nncn2C)no1 | 554
COC(=O)c1ccc(C(=O)NCC2CCN(S(C)(=O)=O)CC2)cc1 | 637
Cc1cc(-c2cc(S(=O)(=O)NCc3ccccc3Cl)c(C)s2)n[nH]1 | 847
Cc1ccc(NS(=O)(=O)c2cc(-c3nc(C(C)C)cs3)cs2)c(C)c1 | 1210
Cc1nc(-c2cn(C(C)C)c3ncccc23)sc1C(=O)NCc1ccc2c(c1)OCO2 | 980
Cc1nc(N2CCCC2)c2c(C(=O)Nc3cccc(Cl)c3)c(C)oc2n1 | 852
Cc1cc2n(n1)CCC(=O)N2CCCC(=O)NCCCN1CCCCCC1 | 570
O=C(CN1C(=O)C2CCCCN2c2ccc(S(=O)(=O)N3CCCC3)cc21)NCC1CCCO1 (stereo not given) | 771
COc1ccc(OC)c(NS(=O)(=O)c2cc3c4c(c2)CCC(=O)N4CCC3)c1 | 804
CCn1cc(S(=O)(=O)N2C[C@@H](C(=O)NC)[C@H](c3n[nH]c(C)n3)C2)cn1 | 577
Clc1ccc(Cl)c(-c2ccc(CNCc3cccs3)o2)c1 | 772
O=C(Cn1c(C(F)(F)F)nc2cc3c(cc21)OCCO3)Nc1ccc2c(c1)OCCCO2 | 836

Further lines, results first:

RP-LC retention time [s] | SMILES
914 | CCOc1ccc(CNC(=O)CN2C(=O)CSc3cccn3-c3ccccc32)cc1
787 | Cc1ccc2c(c1)N(C(=O)Cn1c(C(C)C)nc3c(c1=O)CCN(Cc1ccccc1)C3)CCO2
805 | Cc1nc(N2CCOCC2)c2c(C(=O)NCCCc3ccccc3)c(C)oc2n1
790 | CCOC(=O)C1CCN(c2nc(-c3ccc(OC)cc3)nc3ccccc23)CC1
699 | CCOC(=O)C1CCN(C(=O)Cn2c(=O)oc3ccc(C(=O)N4CCCC4)cc32)CC1
1060 | CCCn1c(=O)c2cc(C(=O)NCCCc3ccccc3)nn2c2ccccc21
717 | CC(C)CCC(=O)NCCc1nc2cccnc2n1-c1ccccc1
664 | Cc1ccc(F)cc1NC(=O)CSc1ccc(N2CCCC(C(=O)NC3CC3)C2)nn1 (stereo not given)
1010 | Cc1ccc(OCC(=O)NC2(c3nc(-c4cccnc4)no3)CCCCC2)cc1
695 | O=C(NCc1c(F)cccc1F)C(=O)NCc1n[nH]c(=O)c2ccccc12
791 | CCn1nccc1-c1cccc(-c2noc(CNC(=O)c3ccco3)n2)c1
913 | COc1ccc(C2=Nc3ccccc3N(CC(=O)Nc3ccc4c(c3)OCCO4)C(=O)C2)cc1
612 | Cn1cc(-c2cc3n(n2)CCC(=O)N3CC(=O)NCCN2CCOCC2)c2ccccc21
1010 | CCc1ccc(C(C)NC(=O)c2cccc(C3CCCN(C(=O)NC(C)C)C3)c2)cc1 (stereo not given)
720 | CCOC(=O)CNC(=O)N1CCc2nc(-c3ccccc3)ncc2C1
1150 | Cc1cccc(Sc2nccnc2N2CCC(C(=O)NCc3cccc(Cl)c3)CC2)c1
1130 | CC1=NS(=O)(=O)N(Cc2ccccc2)C=C1C(=O)OCc1noc(-c2cccc(F)c2)n1
969 | O=C(Cn1nc(C(=O)N2CCCCC2)c2ccccc21)Nc1nc2ccc(Cl)cc2s1

RP-LC retention time [s] | SMILES
1000 | CC(=O)Oc1ccc2cc(-c3ccccc3)c(=O)oc2c1
566 | O=C(Cc1nnc(-c2ccccc2)o1)NCc1ccncc1
634 | CCn1c(CCNC(=O)c2ccc(C)s2)nc2cccnc21
810 | COCCNC(=O)C1CCCN(c2nccnc2Sc2ccccc2)C1 (stereo not given)
712 | CCOC(=O)CSc1nnc(NC(=O)C2CC(=O)N(c3ccc(F)cc3)C2)s1 (stereo not given)
627 | CCn1nccc1C(=O)N1CCC[C@H]1c1nc(-c2ccccc2)n[nH]1
1060 | O=C(Cc1cccc(F)c1)N1CCc2nc(-c3ccc(Cl)cc3)ncc2C1
1410 | CC(C)(C)c1ccc(C(=O)NC2(c3nc(-c4ccccc4)no3)CCCCC2)cc1
685 | CCc1ccccc1NC(=O)Cc1nnc(-c2cnccn2)o1
941 | CCOC(=O)c1nc(N(CC)c2ccc(OC)cc2)c2ccccc2n1
731 | CCc1ccc(C(=O)N2CCN(c3cc(-c4ccc(C)cc4)ncn3)CC2)cc1
659 | O=C(Cn1c(N2CCCCC2)nc2ccccc2c1=O)NCc1cccc(Cl)c1
1200 | Cc1ccc(-c2noc(Cn3ncn4nc(-c5ccccc5Cl)cc4c3=O)n2)cc1
620 | O=C(Cn1ncn2nc(-c3ccccc3)cc2c1=O)N1CCN(c2ccccn2)CC1
1010 | Cc1c(C(=O)N2CCCCC2)cnn1-c1ccc(-c2nc(C3CC3)no2)cn1
1360 | Cc1cc(C)c(S(=O)(=O)N2CCCC2c2nc(-c3ccc(Cl)cc3)no2)c(C)c1 (stereo not given)
969 | Cc1ccc(NC(=O)Cn2cc3c(n2)CCC(C)C3)cc1C (stereo not given)
684 | CCOc1ccccc1C(=O)NC1CCN(c2cc(-c3ccccc3)[nH]n2)C1 (stereo not given)
